Experimental data published in a melting point compilation (Tetko et al.; mined from patent text by program, amines drawn as free bases though some values may be those of a salt).

Compared with `CC(=O)Nc1nccc(Oc2ccc3c(C(=O)Nc4ccc(F)c(C(F)(F)F)c4)cccc3c2)n1`, `NC(=O)CNC(=O)c1cccc(-c2cccc3cc(Cc4cccc(C(F)(F)F)c4)sc23)c1F` is lower in melting point: 213 to 214 °C for the first, 135 to 136 °C for the second.

First: O=S(=O)(CC1(c2ccccc2)CO1)c1ccccc1 (configuration not stated)
Second: CC(C(=O)O)c1cccc(C2(c3ccccc3)OCCO2)c1 (configuration not stated)
The melting point of the first is lower: 89 °C for the first, 91 to 94 °C for the second.

First: OCCc1nccn1CCCc1ccc(O)cc1
Second: CCCCCCCN(CCO)c1cccc(O)c1
The melting point of the first is higher: 116 to 117 °C for the first, 45 to 47 °C for the second.

First: CCCCCCCCCCCCCCCCCC(=O)NCC(C)(C)NCC(O)c1cc(Cl)c(N)c(Cl)c1 (configuration not stated)
Second: CCON(C(=O)c1cn(C)nc1C(F)F)C(C)Cc1c(Cl)cc(Cl)cc1Cl (configuration not stated)
The melting point of the first is lower: 74 to 76 °C for the first, 111 to 114 °C for the second.

Compared with `O=C1C=C(c2ccc(F)cc2)CN1`, `CC1CC(=O)NN=C1c1ccc(-n2ccc(=O)cc2)cc1` (configuration not stated) is higher in melting point: 190 °C for the first, 254 to 256 °C for the second.

Compared with `CC(C(=O)OCC(c1cccc(C(F)(F)F)c1)N1CCNCC1)c1ccc2c(c1)CC(C(C)C)C2` (configuration not stated), `Cc1ccc(O)c(C(OC2CCN(C)CC2)c2nc3ccccc3[nH]2)c1` (configuration not stated) is higher in melting point: 56 to 58 °C for the first, 151 °C for the second.

First: O=[N+]([O-])c1ccccc1-c1ccno1
Second: CCOC(=O)c1cc(O)c(-c2ccccc2)c([N+](=O)[O-])c1
The melting point of the first is lower: 66 to 69 °C for the first, 128 to 130 °C for the second.

Compared with `CCC#CCOc1cc2c(cc1/C=C/C=C/C(C)=C/C(=O)O)C(C)(C)CCC2(C)C`, `COc1cc2c(c(OC)c1/C=C/c1ccc(C=O)cc1)C(C)(C)CCC2(C)C` is lower in melting point: 208 to 209 °C for the first, 108 °C for the second.

First: [N-]=[N+]=NC1CC(n2cnc3c(N4CCC4)nc(N)nc32)OC1CO (configuration not stated)
Second: O=C(O)c1nc2c(NCc3ccccc3)ncnc2n1C1OC(CO)C(O)C1O (configuration not stated)
The melting point of the first is higher: 141 to 143 °C for the first, 125 to 127 °C for the second.

First: CCn1c(=O)n(C)c(=O)n(-c2cc(C(=O)OC)c(Cl)cc2F)c1=O
Second: CCOC(=O)c1cn(-c2nc(NC(C)(C)C)c(F)cc2F)c2c(C)c(F)c(F)cc2c1=O
The melting point of the first is lower: 48 to 49 °C for the first, 207 to 211 °C for the second.

Compared with `N#CC(Nc1ccccc1C(=O)C1CC1)c1c(Cl)cccc1Cl` (configuration not stated), `CC(=O)Nc1cnc2c(NC(=O)c3c(Cl)cccc3Cl)cccc2c1` is higher in melting point: 144 °C for the first, 244 to 245 °C for the second.

Compared with `CC=Cc1cccc(C(=O)C=Cc2ccccc2)c1O`, `Cc1cccc(NC(=O)NCC(=O)N(c2ccccc2)c2ccccc2)c1` is higher in melting point: 95 to 98 °C for the first, 240 °C for the second.

First: COC(=O)c1coc2cc(O)ccc12
Second: Cc1ccc(OC(=O)Cl)cc1
The melting point of the first is higher: 200 to 201 °C for the first, 60 to 61.5 °C for the second.

First: COc1cccc(OC)c1C(=O)Nc1nnc(-c2ccccc2Cl)s1
Second: COC(=NC(=O)Nc1ccc(OC(F)(F)F)cc1)c1ccccc1Cl
The melting point of the first is higher: 235 to 237 °C for the first, 148 to 149 °C for the second.

First: O=C(O)CCSC(CCCc1ccccc1)c1ccc(OCc2ccc3ccccc3n2)cc1 (configuration not stated)
Second: O=C(O)C(=NO)c1ccc(OCCOc2ccc3ccccc3c2)cc1
The melting point of the first is lower: 97 to 100 °C for the first, 178 to 179 °C for the second.

First: C=C1CCC2C3CCC4CC(O)C(OCC)CC4(C)C3C(=NO)CC12C (configuration not stated)
Second: CC12C=CC(=O)C=C1C(N=[N+]=[N-])CC1C2CCC2(C)C(=O)CCC12 (configuration not stated)
The melting point of the first is lower: 97 to 99 °C for the first, 168 to 170 °C for the second.

First: O=c1c2ncn(COCCO)c2nc2[nH]c(-c3ccc(Cl)s3)cn12
Second: Nc1nc2c(ncn2CCC(CO)COC(=O)c2ccccc2)c(=O)[nH]1 (configuration not stated)
The melting point of the first is higher: 226 to 228 °C for the first, 156 to 168 °C for the second.

Compared with `COCCN1c2ccc([N+](=O)[O-])cc2CS1(=O)=O`, `COC(=O)[C@H](Cc1ccc([N+](=O)[O-])cc1)NC(=S)c1c(C)cccc1Cl` is higher in melting point: 130 to 132 °C for the first, 150 to 153 °C for the second.

First: COc1ccc(S(=O)(=O)Nc2cccc3c2Nc2ccc(F)c(O)c2CO3)cc1
Second: COCCC1=C(C)C(=Cc2ccc(S(N)(=O)=O)cc2)c2ccc(OC)cc21
The melting point of the first is higher: 219 to 232 °C for the first, 140 °C for the second.

First: Cc1ccc2c(c1)C1CN(CCCC(=O)c3ccc(F)cc3)CCC1N2C (configuration not stated)
Second: Cc1ccc2c(NCc3ccc(NC(=O)c4ccc(F)cc4)cc3)nc(N3CCN[C@@H](C)C3)nc2c1
The melting point of the first is lower: 140 to 145 °C for the first, 200 to 202 °C for the second.

First: Cc1ccccc1C(C)Oc1cc(OCc2ccsc2)ccc1C(=O)CC(=O)C(=O)O (racemic)
Second: CCCCc1oc2ccccc2c1/C=N/OCCCOc1ccc(C(=O)O)c(NC(=O)c2ccc(C(C)(C)C)cc2)c1
The melting point of the first is lower: 124 to 126 °C for the first, 181 to 182 °C for the second.

First: COc1cc2c(Nc3ccc(Cl)cc3F)ncnc2cc1OCCSc1ccncc1
Second: Cc1cc(-c2cc3cc(OCCNC[C@H](O)COc4ccccc4Cl)ccc3o2)no1
The melting point of the first is higher: 182 to 186 °C for the first, 102 to 106 °C for the second.

First: CC(=O)Nc1nc(-c2ccccc2)c(-c2ccnc(Nc3ccccc3)n2)s1
Second: Nc1ccccc1Nc1ccc(C(=NO)c2ccccc2)cc1
The melting point of the first is higher: over 260 °C for the first, 89 to 91 °C for the second.

First: CCCCOc1c2ccccc2c(C=O)c2ccccc12
Second: CCCCN(C(=O)C(C)C)c1ccc(-c2ccccc2)o1
The melting point of the first is lower: 65 to 67 °C for the first, 87 °C for the second.

Compared with `O=S1(=O)CCCN1CCc1ccncc1`, `CCCCN(CCCC12CC3CC(CC(C3)C1)C2)C(=O)NCCCc1ccncc1` is higher in melting point: 70 °C for the first, 79.8 to 80.4 °C for the second.

First: COc1cc(OC)nc(NC(=O)NS(=O)(=O)c2cc(Br)cc3c2OS(=O)(=O)C=C3)n1
Second: COc1cc(C)nc(NC(=O)NS(=O)(=O)c2ccsc2C2=CCCCC2)n1
The melting point of the first is higher: 204 to 209 °C for the first, 190 to 192 °C for the second.

First: C#CCN(C)c1c(-c2c(F)cc(F)cc2F)c(C#N)nc2ncnn12
Second: C[C@@H](N1CC(=O)N(c2ccc(F)cc2F)C1=O)[C@@]1(c2ccc(F)cc2F)CO1
The melting point of the first is higher: 147 °C for the first, 124 to 125 °C for the second.

Compared with `CSc1cc(N)nc(C(N)=O)c1`, `CCCC(=O)c1c(C)cc(C)cc1O` is lower in melting point: 158 to 159 °C for the first, 48 to 52 °C for the second.

First: CCCOCCOc1ccc(COc2ccc3c(c2)C=C(C(=O)Nc2ccc(CN(C)C4CCOCC4)cc2)CCS3(=O)=O)cc1OCC
Second: CC(=O)Nc1cccc(OCCCN2CCC(c3noc4cc(F)ccc34)CC2)c1
The melting point of the first is lower: 146 to 147 °C for the first, 184 to 186 °C for the second.

First: CCOC(=O)c1ccc2c(c1)N(C(=O)c1ccccc1)Cc1ccccc1O2
Second: CN1CCC[C@H]1c1cnc(Cl)c(Cl)c1C(O)(c1ccccc1)c1ccccc1
The melting point of the first is lower: 149 to 150 °C for the first, 170 to 172 °C for the second.

First: FC(F)(F)c1cc(-c2ccnc(Nc3ccc4c(c3)OCCO4)c2)cc(C(F)(F)F)c1
Second: CNC(=O)c1cc(Oc2ccc(NC(=O)Nc3ccc4c(c3)C(F)(F)OC(F)(F)O4)c(S(C)(=O)=O)c2)ccn1
The melting point of the first is lower: 130 to 132 °C for the first, 222 to 224 °C for the second.

First: N#Cc1ccc(Oc2ccccc2N)cc1C#N
Second: O=C(O)COc1ccc(-c2ccccc2OC2OC(CO)C(O)C(O)C2O)cc1 (configuration not stated)
The melting point of the first is lower: 118 °C for the first, 145 to 146 °C for the second.

Compared with `Clc1ccc(-c2cnccn2)c(Cl)c1`, `O=S1CCc2nn(-c3ccc(Cl)cc3F)c(Cl)c2C1` (configuration not stated) is lower in melting point: 131 to 132 °C for the first, 119 to 122 °C for the second.

First: NCCNC(=O)Nc1ccc2[nH]ccc2c1
Second: CCCCOC(=O)c1ccc(Nc2ncc(C(=O)OCC)c(=O)[nH]2)cc1
The melting point of the first is lower: 156 to 158 °C for the first, 281 to 283 °C for the second.

First: O=C(c1ccc2nonc2c1)N1CC2CCC1CC2
Second: OC1(c2ccccc2)c2ccccc2C2=NC3CCCCC3N21 (configuration not stated)
The melting point of the first is lower: 138 to 139 °C for the first, 176 to 178 °C for the second.

Compared with `ClC1(c2cccs2)CC1c1ccccc1` (configuration not stated), `c1ccc(CCn2ncc3c2ncn2nc(-c4ccco4)nc32)cc1` is higher in melting point: 61 to 63 °C for the first, 174 to 175 °C for the second.

Compared with `CC(=O)NC(=Cc1ccc(C#N)cc1)C(=O)N[C@H](C(=O)O)C1CCCCC1`, `CC(=O)OC(c1ccc(NC(=O)c2ccc(-c3ccc(Cl)cc3)cc2)cc1)C1CCCNC1` (configuration not stated) is higher in melting point: 196 to 198 °C for the first, 200 to 203 °C for the second.

First: CC(O)C(Cc1cc(C(C)(C)C)c(O)c(C(C)(C)C)c1)C(C)O (configuration not stated)
Second: CC(C)C1(C)NC(c2nccc(O)c2C(=O)O)=NC1=O (configuration not stated)
The melting point of the first is lower: 102 to 105 °C for the first, 210 to 211 °C for the second.

First: O=C1O[C@H]2C[C@@H]1CC[C@@H]2I
Second: CCOC(=O)C1CC(O)c2cc3c(cc2C1c1cc(OC)c(OC)c(OC)c1)OCO3 (configuration not stated)
The melting point of the first is lower: 130 to 131 °C for the first, 151 to 152 °C for the second.

First: CN1Cc2c(Cl)ncn2-c2cccc(Cl)c2C1=O
Second: Cc1c(C=CCN)[nH]c(=O)c2c1ccc1nc(Nc3c(Cl)cccc3Cl)n(C)c12
The melting point of the first is lower: 211 to 212 °C for the first, over 300 °C for the second.

Compared with `Nc1ccccc1Sc1cccc2c1C(=O)c1cccc(Sc3ccccc3N)c1C2=O`, `COC(=O)Cc1ccc(OCCNC(=O)C2Cc3ccccc3N2S(=O)(=O)c2ccc(-c3ccc(F)cc3)cc2)c(Cl)c1` (configuration not stated) is lower in melting point: 283 to 284 °C for the first, 68 to 76 °C for the second.

Compared with `Cc1nc(-c2cc(C)c(OCCCc3cnc(C)s3)c(C)c2)no1`, `CCSc1ccc2oc3cc(-c4nnn[nH]4)ccc3c(=O)c2c1` is higher in melting point: 60 to 62 °C for the first, 261 to 262 °C for the second.

First: CCOCCn1c(NC2CCN(CCC3(c4ccc(C)c(C)c4)CCN(C(=O)c4cc(OC)c(OC)c(OC)c4)C3)CC2)nc2ccccc21 (configuration not stated)
Second: CCOCCn1c(C(=O)C2CCN(CCC3(c4ccccn4)CCN(C(=O)c4cc(OC)c(OC)c(OC)c4)C3)CC2)nc2ccccc21 (configuration not stated)
The melting point of the first is higher: 108 to 119 °C for the first, 50 to 55 °C for the second.

First: COc1ccc(Cn2nccc2-c2nn(-c3cccc(C(F)(F)F)c3)ccc2=O)cc1
Second: COc1ccc(C2=CCN(Cc3n[nH]c4c(F)c(F)ccc34)CC2)cc1
The melting point of the first is lower: 159 to 161 °C for the first, 195 to 197 °C for the second.

Compared with `CCOC(=O)C1COc2c(C=O)cc(Cl)c(Cl)c2O1` (configuration not stated), `N#CCCNC(=O)c1cccc(-c2ccc3c(c2)N(Cc2cccc(Cl)c2Cl)CC3)c1` is higher in melting point: 110 to 113 °C for the first, 160 to 161 °C for the second.

First: Cn1cc(C(=O)O)c(=O)c2cc(F)c(N3CCCN(c4ncccn4)CC3)c(C(F)(F)F)c21
Second: CC(=O)Cc1ccc(OCC(O)CN2CCN(c3ccccc3)CC2)cc1 (configuration not stated)
The melting point of the first is higher: 243 to 245 °C for the first, 121 to 122 °C for the second.

First: CNC(=C[N+](=O)[O-])NCc1ccc2c(c1)Nc1nccnc1S2
Second: NCCN1CCC(Nc2nc3cncnc3n2Cc2ccc(F)cc2)CC1
The melting point of the first is higher: over 265 °C for the first, 146 °C for the second.

First: COc1ccc(-c2cc(=O)c3c(O)cc(O)c(-c4cc(-c5cc(=O)c6c(O)cc(O)cc6o5)ccc4OC)c3o2)cc1
Second: O=C(CCCN1CCCCC1)c1ccc2oc3ccc(C(=O)CCCN4CCCCC4)cc3c(=O)c2c1
The melting point of the first is higher: 219 to 222 °C for the first, 93 to 95 °C for the second.

`CC1(C)CC(=NO)c2cc(Br)ccc21` showed a melting point of 115 to 117 °C.
